Source: patent US11396511B2, “Substituted 9,13b-dihydro-1H-dibenzo[c,f]imidazo[1,5-a]azepin-3-ylbenzamides as anti-inflammatory and analgesic agents” (FRONTBIO CO., LTD., priority 2017, dated 2022)

How the values were obtained:
MAPK = test: Western blot analysis, MAPK signaling by LPS signals; assay type: cell-based
Description: Cells were harvested, washed with 1×PBS, and suspended by adding a mixture of a protein extraction buffer (150 mM NaCl, 50 mM Tris-HCl pH 7.4, 5 mM EDTA pH 8.0, 1% NP-40) and a protease inhibitor cocktail. Then, the reaction was allowed to proceed in ice for 20 min, sonicated, and centrifuged (13,000 rpm, 30 min). The concentration of proteins in the supernatant was quantified by a BCA protein assay and proteins were separated on the basis of size on an SDS-PAGE gel. Thereafter, proteins were transferred to a PVDF membrane and blocked with skim milk for 1 h. Primary and secondary antibodies were coupled and photosensitized with ECL solution to determine the expression levels of desired proteins.

mice = test: Hot-plate test; assay type: in vivo; conditions: for response time to the thermal stimulus (hot-plate): 30 min pretreatment, in s (unit assumed); for analgesic efficacy in hot-plate test (in words): 10, 20, 40, 80 mg/kg
Description: Hot-plate test was conducted using an electric heater to measure the analgesic activity of the test substances on the acute thermal stimulus. Experimental animals were injected with the test drugs and a vehicle (control) and were sequentially placed on an electric heater (hot-plate). The response time to the thermal stimulus ([…]) was defined as the time until the experimental animal licked their paws. Male mice weighing 22-25 g, aged 4-5 weeks, were used as the test animals (10 per group).
30 min after pretreatment with the compound 3 (E-S) at concentrations of 10, 20, 40, and 80 mg/kg, hot-plate test was conducted to assess the analgesic efficacy of the compound 3. […] The analgesic efficacy of the compound 4 (E-A) was assessed in the same manner as that of the compound 3.

[1] = system: monosodium urate (MSU) models; test: Von-frey test in monosodium urate models; assay type: in vivo, mice; set-up: threshold values (Von-frey test): unit not given here; conditions: monosodium urate model; for analgesic efficacy, Von-frey test (in words): oral 10, 20, 40, 80 mg/kg; for concentration of highest analgesic efficacy, Von-frey test: oral 10, 20, 40, 80 mg/kg tested
Description: 100 mg of uric acid and 60 μl of 10 N NaOH were dissolved in 20 ml of distilled water and the pH of the solution was adjusted to 7.2-7.4 with HCl (1 N) at 60° C. After stirring at room temperature for 5 days, the solution was plated in a 1 ml tube and stored for 4 days. The solution was vortexed overnight until needle-like crystals appeared. The solution was washed twice with 100% ethanol and centrifuged at 3000 rpm for 2 min. Finally, the MSU crystals were collected and dissolved in […] of endotoxin-free PBS. The resulting sample were injected intra-articularly into mice (MSU 300 μg/10 μl each) under anesthesia. At 24 h post-injection, pain or ankle swelling were measured to determine the analgesic efficacy of a test substance.
(§1) After damage to the sciatic nerve, allodynia induced by the mechanical stimulus was measured. Mice were housed in acrylic chambers on a steel mesh floor and acclimated for ≥60 min before testing. Continuous responses were evaluated using Von-frey filaments by the up-down method. The filaments were brought into vertical contact with the affected left soles and the contact was maintained for 5-6 sec. The response was considered to be positive when the mouse rapidly avoided the stimulus, startled or licked its sole. The Von-frey filaments were first used to stimulate the mice.
The analgesic efficacies of the test substances were evaluated in monosodium urate models. To this end, after oral administration of each test substance at concentrations of 10, 20, 40, and 80 mg/kg, threshold values were measured at different periods of time through Von-frey test.

[2] = system: anticancer drug-induced peripheral neuropathy models (vincristine); test: Von-frey test in anticancer drug-induced peripheral neuropathy models; assay type: in vivo, mice; set-up: threshold values (Von-frey test): unit not given here
Description: Vincristine is an anticancer drug that is widely used to treat malignant tumors, including breast cancer, leukemia, lymphoma, and primary brain tumor. However, vincristine was reported to cause neurotoxicity in peripheral nervous fibers and sensory or motor neuropathy after use. The anticancer drug vincristine is known to cause predictable and consistent neurotoxicity in all patients, particularly patients treated with therapeutic doses. When a patient receives a dose of vincristine, paresthesia accompanied by pain is first observed in proportion to the dose. As neuropathy develops, axons are lost together with motor function. Vincristine is also known to induce hypersensitivity of C nerve fiber nociceptors in the peripheral nervous system. Neuropathy was induced by administration of vincristine. First, 0.05 mg/kg of vincristine was administered intraperitoneally. Thereafter, vincristine was administered intraperitoneally twice a week for 6 weeks (0.125 mg/kg each). Neuropathic pain began to appear at week 3 after administration and significant pain was reported at week 4. The degree of neuropathic pain was measured through the […] (Junzo et al., 2005).
as §1
The analgesic efficacies of the test substances were evaluated in anticancer drug-induced peripheral neuropathy models. To this end, after oral administration of each test substance at concentrations of 10, 20, 40, and 80 mg/kg, threshold values were measured at different periods of time through Von-frey test.

CC(=O)Oc1ccccc1C(=O)NC1=NCC2c3ccccc3Cc3ccccc3N12 (stereo not drawn) [E-A, 2-((9,13b-dihydro-1H-dibenzo[c,f]imidazo[1,5-a]azepin-3-yl)carbamoyl)phenyl acetate] was tested, and the “effect on MAPK signaling by LPS signals” value (MAPK) was “found to affect both MAPK signaling and Akt signaling by LPS signals and reduce the activity of proteins”, the “response time to the thermal stimulus (hot-plate)” value (“response time” for short) (mice; 10 mg/kg) was 9.58 and the “response time” value (mice; 20 mg/kg) was 14.98. For the same compound, the “response time” value (mice; 40 mg/kg) was 17.42, the “response time” value (mice; 80 mg/kg) was 18.30 and the “analgesic efficacy in hot-plate test (in words)” value (mice) was “observed in the 2nd phase”. For the same compound, the “threshold values (Von-frey test)” value ([1]; oral 10 mg/kg, basal) was 0.186, the “threshold values (Von-frey test)” value ([1]; oral 20 mg/kg, basal) was 0.208 and the “threshold values (Von-frey test)” value ([1]; oral 40 mg/kg, basal) was 0.190. The “threshold values (Von-frey test)” value ([1]; oral 80 mg/kg, basal) was 0.186, the “analgesic efficacy, Von-frey test (in words)” value [1] was “concentration-dependent until 2-3 h after treatment” and the “concentration of highest analgesic efficacy, Von-frey test” value (“concentration” for short) [1] was 80 mg/kg.
With O=C(NC1=NCC2c3ccccc3Cc3ccccc3N12)c1ccccc1O (stereo not drawn) [E-S, N-(9,13b-dihydro-1H-dibenzo[c,f]imidazo[1,5-a]azepin-3-yl)-2-hydroxybenzamide] the “effect on MAPK signaling by LPS signals” value (MAPK) was “did not appear to significantly affect MAPK signaling”, the “response time” value (mice; 10 mg/kg) was 8.64 and the “response time” value (mice; 20 mg/kg) was 13.34. The “response time” value (mice; 40 mg/kg) was 15.52, the “response time” value (mice; 80 mg/kg) was 19.30 and the “analgesic efficacy in hot-plate test (in words)” value (mice) was “significant at 40 and 80 mg/kg”. The “threshold values (Von-frey test)” value ([1]; oral 10 mg/kg, 1 h, 10 mg/kg) was 0.173, the “threshold values (Von-frey test)” value ([1]; oral 10 mg/kg, 2 h, 10 mg/kg) was 0.211 and the “threshold values (Von-frey test)” value ([1]; oral 10 mg/kg, 3 h, 10 mg/kg) was 0.148. For the same compound, the “threshold values (Von-frey test)” value ([1]; oral 10 mg/kg, 4 h, 10 mg/kg) was 0.166, the “threshold values (Von-frey test)” value ([1]; oral 10 mg/kg, 5 h, 10 mg/kg) was 0.107 and the “threshold values (Von-frey test)” value ([1]; oral 10 mg/kg, basal) was 0.127. For the same compound, the “threshold values (Von-frey test)” value ([1]; oral 20 mg/kg, 1 h, 20 mg/kg) was 0.194, the “threshold values (Von-frey test)” value ([1]; oral 20 mg/kg, 2 h, 20 mg/kg) was 0.163 and the “threshold values (Von-frey test)” value ([1]; oral 20 mg/kg, 4 h, 20 mg/kg) was 0.207. The “threshold values (Von-frey test)” value ([1]; oral 20 mg/kg, 5 h, 20 mg/kg) was 0.194, the “threshold values (Von-frey test)” value ([1]; oral 20 mg/kg, basal) was 0.127 and the “threshold values (Von-frey test)” value ([1]; oral 40 mg/kg, 1 h, 40 mg/kg) was 0.183. The “threshold values (Von-frey test)” value ([1]; oral 40 mg/kg, 2 h, 40 mg/kg) was 0.214, the “threshold values (Von-frey test)” value ([1]; oral 40 mg/kg, 3 h, 40 mg/kg) was 0.278 and the “threshold values (Von-frey test)” value ([1]; oral 40 mg/kg, 4 h, 40 mg/kg) was 0.257. The “threshold values (Von-frey test)” value ([1]; oral 40 mg/kg, 5 h, 40 mg/kg) was 0.152, the “threshold values (Von-frey test)” value ([1]; oral 40 mg/kg, basal) was 0.127 and the “threshold values (Von-frey test)” value ([1]; oral 80 mg/kg, 1 h, 80 mg/kg) was 0.239. The “threshold values (Von-frey test)” value ([1]; oral 80 mg/kg, 2 h, 80 mg/kg) was 0.439, the “threshold values (Von-frey test)” value ([1]; oral 80 mg/kg, 3 h, 80 mg/kg) was 0.301 and the “threshold values (Von-frey test)” value ([1]; oral 80 mg/kg, 4 h, 80 mg/kg) was 0.267. For the same compound, the “threshold values (Von-frey test)” value ([1]; oral 80 mg/kg, 5 h, 80 mg/kg) was 0.155, the “threshold values (Von-frey test)” value ([1]; oral 80 mg/kg, basal) was 0.138 and the “analgesic efficacy, Von-frey test (in words)” value [1] was “concentration-dependent until 2 h after treatment”. The “concentration” value [1] was 80 mg/kg, the “concentration” value ([2]; 1 h after treatment, oral 10, 20, 40, 80 mg/kg tested) was 80 mg/kg and the “threshold values (Von-frey test)” value ([2]; oral 10 mg/kg, 1 h) was 0.110. The “threshold values (Von-frey test)” value ([2]; oral 10 mg/kg, 2 h) was 0.163, the “threshold values (Von-frey test)” value ([2]; oral 10 mg/kg, 3 h) was 0.180 and the “threshold values (Von-frey test)” value ([2]; oral 10 mg/kg, 4 h) was 0.145. For the same compound, the “threshold values (Von-frey test)” value ([2]; oral 10 mg/kg, 5 h) was 0.135, the “threshold values (Von-frey test)” value ([2]; oral 10 mg/kg, basal) was 0.113 and the “threshold values (Von-frey test)” value ([2]; oral 20 mg/kg, 1 h) was 0.173. The “threshold values (Von-frey test)” value ([2]; oral 20 mg/kg, 2 h) was 0.208, the “threshold values (Von-frey test)” value ([2]; oral 20 mg/kg, 3 h) was 0.191 and the “threshold values (Von-frey test)” value ([2]; oral 20 mg/kg, 4 h) was 0.137. For the same compound, the “threshold values (Von-frey test)” value ([2]; oral 20 mg/kg, 5 h) was 0.194, the “threshold values (Von-frey test)” value ([2]; oral 20 mg/kg, basal) was 0.157 and the “threshold values (Von-frey test)” value ([2]; oral 40 mg/kg, 1 h) was 0.324. The “threshold values (Von-frey test)” value ([2]; oral 40 mg/kg, 2 h) was 0.306, the “threshold values (Von-frey test)” value ([2]; oral 40 mg/kg, 3 h) was 0.270 and the “threshold values (Von-frey test)” value ([2]; oral 40 mg/kg, 4 h) was 0.239. The “threshold values (Von-frey test)” value ([2]; oral 40 mg/kg, 5 h) was 0.194, the “threshold values (Von-frey test)” value ([2]; oral 40 mg/kg, basal) was 0.173 and the “threshold values (Von-frey test)” value ([2]; oral 80 mg/kg, 1 h) was 0.408. The “threshold values (Von-frey test)” value ([2]; oral 80 mg/kg, 2 h) was 0.385, the “threshold values (Von-frey test)” value ([2]; oral 80 mg/kg, 3 h) was 0.390 and the “threshold values (Von-frey test)” value ([2]; oral 80 mg/kg, 4 h) was 0.239. For the same compound, the “threshold values (Von-frey test)” value ([2]; oral 80 mg/kg, 5 h) was 0.242, the “threshold values (Von-frey test)” value ([2]; oral 80 mg/kg, basal) was 0.176 and the “analgesic efficacy, Von-frey test (in words)” value ([2]; oral 10, 20, 40, 80 mg/kg) was “concentration-dependent until 1 h after treatment and was maintained until 3 h after treatment”.
